Assay [1] relates to CPAE (Calf Pulmonary Artery Endothelial) cells. In words: Inhibiting activity on angiogenesis in vitro: CPAE cells, SRB method. Type of assay: cell-based. As to conditions: Bos taurus, Endothelial cell, 96 h, 4 days, 10% FBS + ECGS. On the procedure: (§1) The compound sample dissolved in DMSO was diluted to ten times by using MEM culture medium (in case of CPAE cells) without adding FBS (Fetal Bovine Serum), and RPMI 1640 culture (in case of EL-4 and P388D1 cells), and 20 μl of the solution was poured to each well of 96 well plate in triplicate for every concentration gradient. Then, each cell suspension was prepared and poured to examine the inhibiting activity on angiogenesis.
In case of CPAE (Calf Pulmonary Artery Endothelial) cells (used after 2-3 subcultures), a cell suspension having 7×10^3 cells/ml was prepared with MEM (+10% FBS+50 μg/ml ECGS) medium, and after pouring the suspension (180 μl) to each well of 96 well plate, they were cultured in a CO2 incubator (5% CO2, humidified) for 4 days.
(In general: The SRB assay estimates cell density from bound dye.)

Assay [2] deals with EL-4 (Lymphoma, murine) cells. In words: Inhibiting activity on angiogenesis in vitro: EL-4 cells, MTT method. Type of assay: cell-based. As to conditions: Mus musculus, EL4, 72 h, read-out: IC50, EL-4. The protocol:
as §1
In case of EL-4 (Lymphoma, murine) and P388D1 (leukemia, mouse) cells, a cell suspension having 1×10^4 cells/ml was prepared with RPMI1640 (+10% FBS) culture medium, and after pouring the suspension (180 μl) to each well of 96 well plate, they were cultured in a CO2 incubator (5% CO2, humidified) for 3 days.
A general note: Tetrazolium assays rely on reduction of a dye to a coloured formazan, in cell work by metabolically active cells.

The mark [3] stands for this setting: EL-4 cells, 3 days, MTT method, 10% FBS.

For 18 compounds, IC50 results are on record in patent US6063812A, “Fumagillol derivatives and processes for preparing the same” (Chong Kun Dang Corporation, priority 1998, dated 2000).

Values after ≈ are worked out from the molar mass of the structure shown. Where two headings read alike, the source gives them in different places.

For orientation: IC50 means the concentration needed to halve the response being measured. As for `COc1cc(/C=C/C(=O)O[C@@H]2CC[C@](O)(CCl)[C@@H]([C@@]3(C)O[C@@H]3CC=C(C)C)[C@@H]2OC)cc(OC)c1OC` [Example 5, 4-(3,4,5-trimethoxycinnamoyl)oxy-2-(1,2-epoxy-1,5-dimethyl-4-hexenyl)-3-methoxy-1-chloromethyl-1-cyclohexanol], the figures for the IC50 in assay [1] and in assay [2] (setting [3]) were 4.8e-05 ng/mL and 1.1e-05 ng/mL (≈ 2.04e-05 nM), respectively.
On the same counts, the results for `COc1ccc(/C=C/C(=O)O[C@@H]2CC[C@]3(CO3)[C@@H]([C@@]3(C)O[C@@H]3CC=C(C)C)[C@@H]2OC)cc1CN(C)C` [Example 19, O-(3-dimethylaminomethyl-4-methoxycinnamoyl)fumagillol] are 0.00032 ng/mL and 0.00057 ng/mL (≈ 0.00114 nM).
On the same counts, the results for `CO[C@@H]1[C@H](OC(=O)/C=C/c2ccc(OC(C)=O)cc2)CC[C@]2(CO2)[C@H]1[C@@]1(C)O[C@@H]1CC=C(C)C` [Example 9, O-(4-acetoxycinnamoyl)fumagillol] are 0.0044 ng/mL and 0.0066 ng/mL (≈ 0.014 nM).
As for `COc1cc(/C=C/C(=O)O[C@@H]2CC[C@]3(CO3)[C@@H]([C@@]3(C)O[C@@H]3CC=C(C)C)[C@@H]2OC)cc(OC)c1OC` [Example 3, O-(3,4,5-trimethoxycinnamoyl)fumagillol], the IC50 in assay [2] turned out to be 1.1e-05 ng/mL (≈ 2.19e-05 nM).
Take `COc1cc(/C=C/C(=O)O[C@@H]2CC[C@]3(CO3)[C@@H]([C@@]3(C)O[C@@H]3CC=C(C)C)[C@@H]2OC)cc(OC)c1O` [Example 12, O-(3,5-dimethoxy-4-hydroxycinnamoyl)fumagillol]: the IC50 in assay [1] was determined as 0.00073 ng/mL; in assay [2] (setting [3]), 0.00069 ng/mL (≈ 0.00141 nM).
Turning to `CO[C@@H]1[C@H](OC(=O)/C=C/c2ccc(OCCN(C)C)cc2)CC[C@]2(CO2)[C@H]1[C@@]1(C)O[C@@H]1CC=C(C)C` [Example 18, O-(4-dimethylaminoethoxycinnamoyl)fumagillol], the IC50 in assay [1] worked out at 0.00052 ng/mL; in assay [2] (setting [3]), 0.00041 ng/mL (≈ 0.000821 nM).
On the same counts, the results for `CO[C@@H]1[C@H](OC(=O)/C=C/c2ccc(N(C)C)cc2)CC[C@](O)(CCl)[C@H]1[C@@]1(C)O[C@@H]1CC=C(C)C` [Example 25, 4-(4-dimethylaminocinnamoyl)oxy-2-(1,2-epoxy-1,5-dimethyl-4-hexenyl)-3-methoxy-1-chloromethyl-1-cyclohexanol] are 0.00033 ng/mL and 0.00041 ng/mL (≈ 0.000833 nM).
On the same counts, the results for `CO[C@@H]1[C@H](OC(=O)/C=C/c2ccc([N+](=O)[O-])cc2)CC[C@]2(CO2)[C@H]1[C@@]1(C)O[C@@H]1CC=C(C)C` [Example 7, O-(4-nitrocinnamoyl)fumagillol] are 0.012 ng/mL and 0.054 ng/mL (≈ 0.118 nM).
For `CO[C@@H]1[C@H](OC(=O)/C=C/C=C/C=C/C=C/C(=O)O)CC[C@]2(CO2)[C@H]1[C@@]1(C)O[C@@H]1CC=C(C)C` [Fumagillin, fumagillin, reference compound], the IC50 in assay [2] worked out at 1.6 ng/mL (≈ 3.49 nM).
Take `CO[C@@H]1[C@H](OC(=O)/C=C/c2ccc(Cl)cc2)CC[C@]2(CO2)[C@H]1[C@@]1(C)O[C@@H]1CC=C(C)C` [Example 4, O-(chlorocinnamoyl)fumagillol]: the IC50 turned out to be 0.99 ng/mL in assay [1] and 0.84 ng/mL (≈ 1.88 nM) in assay [2] (setting [3]).
As to `CO[C@@H]1[C@H](OC(=O)/C=C/c2ccc(N(C)C)cc2)CC[C@]2(CO2)[C@H]1[C@@]1(C)O[C@@H]1CC=C(C)C` [Example 14, O-(4-dimethylaminocinnamoyl)fumagillol], the IC50 in assay [1] was found to be 0.00063 ng/mL; in assay [2] (setting [3]) it was 0.00049 ng/mL (≈ 0.00108 nM).
For the compound `COc1cc(N)c(/C=C/C(=O)O[C@@H]2CC[C@]3(CO3)[C@@H]([C@@]3(C)O[C@@H]3CC=C(C)C)[C@@H]2OC)cc1OC` [Example 21, O-(3,4-dimethoxy-6-aminocinnamoyl)fumagillol], the IC50 is 0.00083 ng/mL in assay [1] and 0.00082 ng/mL (≈ 0.00168 nM) in assay [2] (setting [3]).
For `COc1ccc(/C=C/C(=O)O[C@@H]2CC[C@]3(CO3)[C@@H]([C@@]3(C)O[C@@H]3CC=C(C)C)[C@@H]2OC)cc1` [Example 2, O-(4-methoxycinnamoyl)fumagillol], the IC50 turned out to be 0.0017 ng/mL in assay [1] and 0.0022 ng/mL (≈ 0.00497 nM) in assay [2] (setting [3]).
The matching figures for `COc1cc(/C=C/C(=O)O[C@@H]2CC[C@]3(CO3)[C@@H]([C@@]3(C)O[C@@H]3CC=C(C)C)[C@@H]2OC)cc(OC)c1OC(C)=O` [Example 11, O-(4-acetoxy-3,5-dimethoxycinnamoyl)fumagillol]: 0.00021 ng/mL and 0.00032 ng/mL (≈ 0.000603 nM).
On the same counts, the results for `COc1cc(/C=C/CO[C@@H]2CC[C@]3(CO3)[C@@H]([C@@]3(C)O[C@@H]3CC=C(C)C)[C@@H]2OC)cc(OC)c1OC` [Example 17, O-(3,4,5-trimethoxycinnamyl)fumagillol] are 0.0012 ng/mL and 0.0015 ng/mL (≈ 0.00307 nM).
The matching figures for `CO[C@@H]1[C@H](OC(=O)/C=C/c2ccc(N)cc2)CC[C@]2(CO2)[C@H]1[C@@]1(C)O[C@@H]1CC=C(C)C` [Example 15, O-(4-aminocinnamoyl)fumagillol]: 0.0025 ng/mL and 0.0043 ng/mL (≈ 0.0101 nM).
For the compound `COc1ccc(/C=C/C(=O)O[C@@H]2CC[C@](O)(CCl)[C@@H]([C@@]3(C)O[C@@H]3CC=C(C)C)[C@@H]2OC)cc1` [Example 13, 4-(4-methoxycinnamoyl)oxy-2-(1,2-epoxy-1,5-dimethyl-4-hexenyl)-3-methoxy-1-chloromethyl-1-cyclohexanol], the IC50 turned out to be 0.0011 ng/mL in assay [1] and 0.0016 ng/mL (≈ 0.00334 nM) in assay [2] (setting [3]).
On the same counts, the results for `CO[C@@H]1[C@H](OC(=O)/C=C/c2ccc3c(c2)OCO3)CC[C@]2(CO2)[C@H]1[C@@]1(C)O[C@@H]1CC=C(C)C` [Example 20, O-(3,4-methylenedioxycinnamoyl)fumagillol] are 0.00012 ng/mL and 0.00022 ng/mL (≈ 0.000482 nM).
